According to PubChem BioAssay (NCI):
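Exposure lasted 48 hours, with cells grown in 96-well plates and compounds tested at five concentrations. Abbreviation: GI50, concentration required for 50% inhibition of growth. TGI denotes the concentration required for complete inhibition of growth.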

How the values were obtained:
Assay in all cases: NCI tumour cell line growth inhibition, 48 h
MDA-MB-231 breast = test system: MDA-MB-231 breast
TK-10 renal = test system: TK-10 renal
K-562 leukemia = test system: K-562 leukemia
SK-MEL-5 melanoma = test system: SK-MEL-5 melanoma
MDA-MB-435 = test system: MDA-MB-435
IGROV1 ovarian = test system: IGROV1 ovarian
HS 578T breast = test system: HS 578T breast
EKVX NSCLC = test system: EKVX NSCLC
PC-3 prostate = test system: PC-3 prostate
HCT-116 colon = test system: HCT-116 colon

| SMILES | GI50 (MDA-MB-231 breast) [µM] | TGI (MDA-MB-231 breast) [µM] | GI50 (TK-10 renal) [µM] | TGI (TK-10 renal) [µM] | GI50 (K-562 leukemia) [µM] | GI50 (SK-MEL-5 melanoma) [µM] | TGI (SK-MEL-5 melanoma) [µM] | GI50 (MDA-MB-435) [µM] | TGI (MDA-MB-435) [µM] | GI50 (IGROV1 ovarian) [µM] | TGI (IGROV1 ovarian) [µM] | GI50 (HS 578T breast) [µM] | TGI (HS 578T breast) [µM] | GI50 (EKVX NSCLC) [µM] | TGI (EKVX NSCLC) [µM] | GI50 (PC-3 prostate) [µM] | TGI (PC-3 prostate) [µM] | TGI (HCT-116 colon) [µM] | TGI (K-562 leukemia) [µM] |
| --- | --- | --- | --- | --- | --- | --- | --- | --- | --- | --- | --- | --- | --- | --- | --- | --- | --- | --- | --- |
| COc1cc(/C=C/C(=O)c2ccc(F)cc2)ccc1OCCCCCOc1cc2c(cc1OC)C(=O)N1CCCC1C=N2 (configuration not stated) | 0.282 | 1.96 | 0.123 | 0.981 | 0.0306 | 0.0896 | 0.23 | 0.0339 | 0.145 | 0.0646 | 11.3 | 0.0298 | 0.223 | 0.151 | 0.601 | 0.0208 | 0.215 |  |  |
| Cc1cnc2c(c1)C(=O)N(c1ccc([N+](=O)[O-])cc1)S2(=O)=O |  | > 100 |  | > 100 |  |  | > 100 |  | > 100 |  | > 100 |  | > 100 |  | > 100 |  | > 100 | > 100 |  |
| CCCCCCCc1cscc1-c1cscc1Br |  | > 100 |  | > 100 |  |  | > 100 |  | > 100 |  | > 100 |  |  |  | > 100 |  | > 100 | > 100 | > 100 |
| O=C1C=CC(=O)c2cc(Sc3ccccc3)c(=O)c(Sc3ccccc3)cc21 |  |  |  | > 100 |  |  | > 100 |  |  |  | > 100 |  |  |  | > 100 |  |  | > 100 | 61.9 |
| S=C(Nc1ccc2c(c1)oc1ccccc12)c1cccs1 |  | > 100 |  | > 100 |  |  | > 100 |  | > 100 |  | > 100 |  | > 100 |  | > 100 |  | > 100 | > 100 |  |
| C=CC(=O)NCNC(=O)C=C |  |  |  | > 100 |  |  | > 100 |  |  |  | > 100 |  |  |  | > 100 |  |  | > 100 | > 100 |
| C=C(CCC/C(C)=C/C=C/[C@H](C)CCCc1ccoc1)C[C@@H]1OC(=O)[C@H](C)[C@@H]1O |  | 19.4 |  | 22.2 |  |  | 17 |  | 18.5 |  | 24.6 |  |  |  | 21 |  | 17.2 | 42.4 | 28.6 |
| Cc1c(-c2nc(N)c(C#N)c(N)c2C#N)c(=O)oc2ccccc12 |  | > 100 |  | > 100 |  |  | > 100 |  |  |  | > 100 |  | > 100 |  | > 100 |  | > 100 | > 100 | > 100 |
| C(=N\NC1=NCCN1)/c1cccc2cc3ccncc3nc12 |  | 6.13 |  | 22.2 |  |  | 22.9 |  | 10.5 |  | 15.8 |  | 61.3 |  | 14.9 |  | 13.7 | 3.19 |  |
| COCC12CCC(OC)C34C5CC6(O)C(OC)C=C(C5C6OC(=O)c5ccccc5)C(C(OC)C13)C4N(C)C2 (configuration not stated) |  | > 100 |  | > 100 |  |  | > 100 |  | > 100 |  | > 100 |  | > 100 |  | > 100 |  | > 100 | > 100 |  |
| CCCn1c(=O)c2nn3c(=O)n(CCC)c(=O)c3nn2c1=O |  |  |  | > 100 |  |  | > 100 |  | > 100 |  | > 100 |  | > 100 |  | > 100 |  | > 100 | > 100 | > 100 |
| C/C(=N\O)C1CC2C=C(C#N)C1N(Cc1ccccc1)C2 (configuration not stated) |  | > 100 |  | > 100 |  |  | > 100 |  | > 100 |  |  |  | > 100 |  | > 100 |  | > 100 | > 100 | > 100 |
| [N-]=[N+]=CC(=O)OCC1NC(=O)C(COC(=O)C=[N+]=[N-])NC1=O (configuration not stated) |  | > 100 |  | > 100 |  |  |  |  | > 100 |  | > 100 |  | > 100 |  | > 100 |  | > 100 | > 100 | > 100 |
| CCP(=O)(CC)C(Cl)(Cl)C(O)C(Cl)(Cl)Cl (configuration not stated) |  | > 100 |  | > 100 |  |  | > 100 |  |  |  | > 100 |  | > 100 |  |  |  | > 100 | > 100 | > 100 |
| COc1ccc(NS(=O)c2c(C)cc(C)cc2C)cc1 (configuration not stated) |  | > 100 |  | > 100 |  |  | 92.1 |  | > 100 |  | > 100 |  | > 100 |  | > 100 |  |  | > 100 | > 100 |
| O=C1CCCC2=C1CC1=C(CCCC1=O)N2c1ccc([N+](=O)[O-])cc1 |  |  |  | > 100 |  |  | > 100 |  |  |  | > 100 |  | > 100 |  | > 100 |  | > 100 |  | > 100 |
| C/C1=C/C[C@@H](/C(C)=C/c2csc(C)n2)OC(=O)C[C@H](O)C(C)(C)C(=O)[C@H](C)[C@@H](O)[C@@H](C)CCC1 |  |  |  | 0.4 |  |  | 0.167 |  |  |  | 0.215 |  | < 0.0001 |  | 0.215 |  | 0.193 | 0.173 |  |
| O=C(O)c1cccc(OCCOc2cccc(C(=O)O)c2[N+](=O)[O-])c1[N+](=O)[O-] |  | > 100 |  | > 100 |  |  | > 100 |  | > 100 |  | > 100 |  | > 100 |  | > 100 |  | > 100 | > 100 |  |
| Oc1c(Cl)c(Cl)c(O)c(CCNc2nccs2)c1Cl |  | 2.16 |  | 33 |  |  | 8.71 |  | 41.8 |  | 17.9 |  |  |  | 41.1 |  | 45.1 | 23.6 | > 100 |
| CCc1ccc(Nc2cc(=O)n(C)c(SCc3ccccc3)n2)cc1 |  | > 100 |  | > 100 |  |  | > 100 |  | > 100 |  | > 100 |  | > 100 |  | > 100 |  |  | 57.1 | > 100 |
| Cc1cc(C)c(NC(=O)/C=C/c2ccccc2)c(C)c1 |  |  |  | > 100 |  |  |  |  | > 100 |  | > 100 |  | > 100 |  | > 100 |  | > 100 |  | > 100 |
| COC(=O)[C@@H](OC(C)=O)[C@@H](OC(C)=O)c1nnc2ccc(Cl)nn12 |  | > 100 |  | > 100 |  |  | > 100 |  | > 100 |  | > 100 |  | > 100 |  | > 100 |  | > 100 | > 100 |  |
| CO[C@H]1O[C@@H]2OC3(C)CCC4[C@H](C)CCC([C@H]1C)[C@]42OO3 (some centres not stated) |  | > 100 |  |  |  |  | > 100 |  | > 100 |  | > 100 |  | > 100 |  | > 100 |  | > 100 | > 100 | > 100 |
